Values of other authors, collected in patent publication US11564931B2, “Low benzalkonium chloride bimatoprost ophthalmic compositions with effective penetration and preservation properties” (Somerset Therapeutics LLC, priority 2019, dated 2023).

Details: patients starting on monotherapy; Covert D et al. 2006

Row | Structure (SMILES) | Rate of adjunctive medication use
1 | CCNC(=O)CCC/C=C\C[C@@H]1[C@@H](/C=C/[C@@H](O)CCc2ccccc2)[C@H](O)C[C@@H]1O [bimatoprost, (Z)-7-[(1R, 2R, 3R, 5S)-3,5-Dihydroxy-2-[(1E, 3S)-3-hydroxy-5-phenyl-1-pentenyl]cyclopentyl]-5-N-ethylheptenamide] | 23.2%
2 | CC(C)OC(=O)CCC/C=C\C[C@@H]1[C@@H](CC[C@@H](O)CCc2ccccc2)[C@H](O)C[C@@H]1O [latanoprost] | 30.2%
3 | CC(C)OC(=O)CCC/C=C\C[C@@H]1[C@@H](/C=C/[C@@H](O)COc2cccc(C(F)(F)F)c2)[C@H](O)C[C@@H]1O [travoprost] | 22.5%
